US7410982B2, “Propanamine derivatives as serotonin and norepinephrine reuptake inhibitors” (Eli Lilly and Company, priority 2002, dated 2008)

melting point: 68.1 °C
Structure (SMILES): CNCC[C@@H](Oc1cncc2sccc12)c1ccccc1.Cl
